# How the values were obtained:
# P2X3 = target: T1, P2X3 (Mus musculus, UniProt Q3UR32); assay: ATP-induced [Ca++]i transients in DRG neurons, Fura-2 fluorescence imaging, dish-in-dish culture; assay type: cell-based
# T1 construct: endogenous in cells; host or cells: primary lumbosacral DRG neurons of C57BL/6J mice
# T1 sequence (Q3UR32 1-397): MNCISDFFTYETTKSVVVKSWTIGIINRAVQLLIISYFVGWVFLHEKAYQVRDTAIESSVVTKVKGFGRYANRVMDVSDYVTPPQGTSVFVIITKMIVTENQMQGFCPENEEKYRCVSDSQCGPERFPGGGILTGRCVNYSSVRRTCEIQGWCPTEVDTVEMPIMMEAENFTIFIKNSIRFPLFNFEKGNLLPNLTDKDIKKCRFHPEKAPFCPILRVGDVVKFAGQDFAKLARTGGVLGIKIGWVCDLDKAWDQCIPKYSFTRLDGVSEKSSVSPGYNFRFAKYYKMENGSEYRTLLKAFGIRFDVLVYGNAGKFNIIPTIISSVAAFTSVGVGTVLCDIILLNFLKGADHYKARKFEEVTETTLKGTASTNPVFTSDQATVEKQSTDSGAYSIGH
# Procedure: (§1) DRG tissues were obtained from C57BL/6J (Jackson Laboratory; 20 g). Upon arrival, mice were housed in microisolator caging and maintained on 12 hour light/dark cycle in a temperature controlled environment. The mice had access to food and water ad libitum for two weeks. All studies were carried out in accordance with the guidelines of the Institutional Animal Care and Use Committee (IACUC) of Charles R. Drew University of Medicine and Science and the NIH Guide for the Care and Use of Laboratory Animals.
# (§2) Lumbosacral adult DRG cells (level L1-S-1) were collected under sterile technique and placed in ice cold medium Dulbecco's Modified Eagle's Medium (DMEM; Sigma-Aldrich, St. Louis, Mo.). Adhering fat and connective tissue were removed and each isolated DRG tissue was minced with sterile scissors and placed immediately in a medium consisting of 5 ml of DMDM containing 0.5 mg/ml of trypsin (Sigma Type III), 1 mg/ml of collagenase (Sigma Type IA) and 0.1 mg/ml of DNAase (Sigma Type III) and all kept at 37 degrees Centigrade for 30 minutes with agitation.
# (§3) After dissociation of the ganglia soybean trypsin inhibitor (Sigma Type III) was used to terminate cell dissociation. Cell suspensions were centrifuged for one minute at 1000 rpm and the cell pellets were resuspended in DMEM supplemented with 5% fetal bovine serum (FBS), 2 mM glutamine-penicillin-streptomycin mixture, 1 ug/ml DNAase, and 5 ng/ml of NGF (Sigma).
# (§4) Cells were then placed on Matrigel® (Invitrogen, Carlsbad, Calif.) coated 15-mm coverslips (Collaborative Research Co., Bedford Pa.) and kept at 37 degrees Centigrade in a 5% CO2 incubator for 24 hours, then given fresh media and maintained in primary culture until used for experimental procedures.
# (§5) Adjacent culture of SH-SY5Y cells with dorsal root ganglion cells occurred as follows. A dish-in-dish system involving a physically separate outer “surround” cell culture well and a separate inner “center” cell culture well was constructed, both wells capable of being managed independently (FIG. 1).
# (§6) Mouse DRG neuron cells were seeded in the center well which medium consisted of 5% FBS, 2 mM glutamine-penicillin-streptomycin mixture, 1 ug/mL DNAase, and 5 ng/mL NGF for 24 hours at 5% CO2 and 37 degrees Centigrade. Thus, the two cell populations were co-dish-in-dish cultured, separated but adjacent to each other for 12 hours prior to assessing [Ca++]i response to chemical stimulation. […]
# Culture of normal control DRG cells juxtaposed with media containing no cells took place as follows. To establish additional control conditions for assessing the effect of non-diffusible cell-to-cell communication two additional controls were performed: 1) dish-in-dish culture of normal control DRG cells in the center culture well with DRG cell media only in the surround culture well; and 2) dish-in-dish culture of normal control DRG cells in the center culture well with human SH-SY5Y neuroblastoma cell media only in the surround culture well.
# (§7) [Ca++]i fluorescence imaging was carried out. DRG neurons were loaded with fluorescent dye […] Fura-2 AM (Invitrogen, Carlsbad, Calif.) for 45 minutes at 37 degrees Centigrade in HBSS supplemented with 20 mM HEPES, pH 7.4. The cover slips were mounted in an RC-26 recording chamber P-4 (Warner Instruments, Hamden, Conn.) and placed on a stage of an Olympus IX51 inverted microscope (Olympus America, Center Valley, Pa.). Observations were made at room temperature (20-23 degrees Centigrade) with a 20× UApo/340 objective. Neurons were bathed and perfused with HBSS buffer using gravity at a rate of 1-2 ml/min.
# Fluorescence intensity at 505 nm with excitation at 334 nm and 380 nm were captured as digital images (sampling rates from 0.1 to 2 seconds). Regions of interest were identified within the soma from which quantitative measurements were made by re-analysis of stored image sequences using Slidebook® Digital Microscopy software. […]
# DRG neurons = assay: basal [Ca++]i in DRG neurons, Fura-2 fluorescence imaging; assay type: cell-based, mouse; conditions: E2 100 nM by itself
# Procedure: as §1
# Lumbosacral adult DRG cells (level L1-S-1) were collected under sterile technique and placed in ice cold medium Dulbecco's Modified Eagle's Medium (DMEM; Sigma-Aldrich, St. Louis, Mo.). […]
# [Ca++]i fluorescence imaging was carried out. […]
# Fluorescence intensity at 505 nm with excitation at 334 nm and 380 nm were captured as digital images (sampling rates from 0.1 to 2 seconds). Regions of interest were identified within the soma from which quantitative measurements were made by re-analysis of stored image sequences using Slidebook® Digital Microscopy software. [Ca++]i was determined by ratiometric method of Fura-2 fluorescence from calibration of a series of buffered Ca++ standards. […]
# All of the data were expressed as the mean±SEM. […]
# TRPV1 = target: T2, TRPV1 (Mus musculus, UniProt Q704Y3); assay: capsaicin-induced [Ca++]i transients in DRG neurons, Fura-2 fluorescence imaging, dish-in-dish culture; assay type: cell-based
# T2 construct: endogenous in cells; host or cells: primary lumbosacral DRG neurons of C57BL/6J mice
# Procedure: as §1, §2, §3, §4, §5, §6, §7
# Fluorescence intensity at 505 nm with excitation at 334 nm and 380 nm were captured as digital images (sampling rates from 0.1 to 2 seconds). Regions of interest were identified within the soma from which quantitative measurements were made by re-analysis of stored image sequences using Slidebook® Digital Microscopy software. [Ca++]i was determined by ratiometric method of Fura-2 fluorescence from calibration of a series of buffered Ca++ standards. E2 was applied acutely for five minutes onto the experimental chamber.
# Repeated application of drugs was achieved by superfusion into individual neurons in a rapid mixing chamber for specific intervals (100-500 ms). […]
# [1] = neuroblastoma SH-SY5Y cells in the surround well
# T2 sequence (Q704Y3 whole entry): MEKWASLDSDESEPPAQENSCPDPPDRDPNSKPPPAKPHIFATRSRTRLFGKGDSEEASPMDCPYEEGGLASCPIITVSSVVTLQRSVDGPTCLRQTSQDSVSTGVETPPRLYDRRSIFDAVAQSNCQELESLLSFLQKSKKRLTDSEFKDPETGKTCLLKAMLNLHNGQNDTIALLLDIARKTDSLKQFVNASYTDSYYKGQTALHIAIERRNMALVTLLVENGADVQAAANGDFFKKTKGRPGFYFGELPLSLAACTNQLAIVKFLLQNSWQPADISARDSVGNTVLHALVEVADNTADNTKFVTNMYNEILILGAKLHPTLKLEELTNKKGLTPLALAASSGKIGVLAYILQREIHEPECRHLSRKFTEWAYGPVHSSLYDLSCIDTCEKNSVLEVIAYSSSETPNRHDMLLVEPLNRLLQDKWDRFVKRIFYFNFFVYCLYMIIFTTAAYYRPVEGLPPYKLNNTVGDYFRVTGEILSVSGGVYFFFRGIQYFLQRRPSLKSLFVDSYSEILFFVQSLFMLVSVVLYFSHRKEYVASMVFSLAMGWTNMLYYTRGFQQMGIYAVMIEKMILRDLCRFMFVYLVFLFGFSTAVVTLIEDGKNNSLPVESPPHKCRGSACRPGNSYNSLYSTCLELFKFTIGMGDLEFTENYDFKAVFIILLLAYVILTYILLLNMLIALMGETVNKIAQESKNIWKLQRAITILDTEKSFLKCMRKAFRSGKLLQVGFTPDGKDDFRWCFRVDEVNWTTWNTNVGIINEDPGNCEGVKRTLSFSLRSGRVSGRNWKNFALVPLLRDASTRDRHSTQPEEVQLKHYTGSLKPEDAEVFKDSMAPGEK
smiles,measurement,setting,value
O=C(O)CN(CC(=O)O)c1ccccc1OCCOc1ccccc1N(CC(=O)O)CC(=O)O [BAPTA],effect on ATP-induced [Ca++]i spikes,"P2X3; BAPTA 10 mM, Ca++-free media",eliminated
Cc1nc(N=Nc2ccc(S(=O)(=O)O)cc2S(=O)(=O)O)c(COP(=O)(O)O)c(C=O)c1O [PPADS],effect on ATP-induced [Ca++]i transients,"P2X3; pretreatment with PPADS 5 uM, ATP 10 uM",blocked
"C[C@]12CC[C@@H]3c4ccc(O)cc4CC[C@H]3[C@@H]1CC[C@@H]2O [E2, 17 β-estradiol]",effect on basal [Ca++]i,DRG neurons,no effect
same,ATP-induced [Ca++]i transient after E2,"P2X3; ATP 10 uM after five-minute incubation with E2 (100 nM), mean±SEM, n=5, p<0.05",171.17 ± 48.9 nM
same,reversibility of the effect on ATP-induced [Ca++]i,P2X3; E2 100 nM,reversible
same,effect on ATP-induced [Ca++]i transients,"P2X3; E2 100 nM, control conditions",attenuated
same,effect of E2 on ATP-induced P2X3-mediated [Ca++]i,P2X3; [1],abolished
same,peak of capsaicin-induced [Ca++]i transients with E2,"TRPV1; capsaicin 100 nM, E2 100 nM applied first, mean±SEM, n=5, p<0.05",175.01 ± 34.8 nM
same,effect on capsaicin-induced TRPV1-mediated [Ca++]i flux,TRPV1; [1],attenuated
Nc1ncnc2c1ncn2[C@@H]1O[C@H](COP(=O)(O)OP(=O)(O)OP(=O)(O)O)[C@@H](O)[C@H]1O [ATP],[Ca++]i spikes on ATP application,"P2X3; 10 second application of ATP 10 uM, DRG neurons in center and surround wells",equal [Ca++]i spikes
same,"ATP-induced [Ca++]i responses, initial stimulation","P2X3; ATP 10 uM, DRG neurons exposed to KCL (50 mM) in the surround well, p<0.001",four fold higher
same,ATP-induced [Ca++]i response with media only in surround well,"P2X3; ATP 10 uM, SH-SY5Y media without cells in the surround well",as occurred under control conditions
same,ATP-induced [Ca++]i response,"P2X3; ATP 10 uM, neuroblastoma SH-SY5Y cells in the surround well, n=4",193 ± 40.6 nM
same,"ATP-induced [Ca++]i responses, subsequent stimulation","P2X3; ATP 10 uM, ten minute intervals, DRG neurons exposed to KCL (50 mM) in the surround well, p<0.001",significantly reduced
same,ATP-induced [Ca++]i transient,"P2X3; initial ATP (10 uM) response before E2, DRG cells in surround well (control), mean±SEM, n=5",425.86 ± 49.5 nM
same,ATP-stimulated [Ca++]i with KCL media only in surround well,P2X3; media with 50 mM KCL without cells in the surround well,as was observed in the control
"C[C@]12CC[C@@H]3c4ccc(O)cc4C[C@@H](CCCCCCCCC[S+]([O-])CCCC(F)(F)C(F)(F)F)[C@H]3[C@@H]1CC[C@@H]2O (some centres unmarked) [ICI 182,780]",effect on the 17 β-estradiol inhibitory effect on ATP-induced [Ca++]i transients,"P2X3; ICI 182,780 1 nM",blocked
COc1cc(CNC(=O)CCCC/C=C/C(C)C)ccc1O [capsaicin],reversibility of the effect of capsaicin,TRPV1,not reversible
same,peak of capsaicin-induced [Ca++]i transients,"TRPV1; capsaicin 100 nM without E2, control conditions, mean±SEM, n=5",399.21 ± 44.5 nM
same,capsaicin-induced [Ca++]i response with media only in surround well,"TRPV1; capsaicin 100 nM, SH-SY5Y media without cells in the surround well",as occurred under control conditions
same,capsaicin-induced [Ca++]i response,"TRPV1; capsaicin 100 nM, neuroblastoma SH-SY5Y cells in the surround well, n=4",145.90 ± 28.84 nM
same,[Ca++]i spikes on capsaicin application,TRPV1; capsaicin 3 second 100 nM by fast superfusion,produced [Ca++]i spikes
Oc1cc2c(cc1O)CN(C(=S)NCCc1ccc(Cl)cc1)CCC2 [capsazepine],effect on capsaicin-induced [Ca++]i spikes,"TRPV1; capsazepine 100 nM, capsaicin 100 nM 3 second",almost completely blocked

# Reference: patent US9834750B2, “Cell-to-cell communication without exchange of mediating diffusible factors or using any physical contact between cells” (priority 2013, dated 2017)
